Data reported in the supplement of paper PMC10307832.

compound: CC[C@@H]1C(=O)N(C)c2cnc(Nc3ccc(C(=O)NC4CCN(C)CC4)cc3OC)nc2N1C1CCCC1 [BI-2536] + COc1cc2c(Oc3ccc(NC(=O)C4(C(=O)Nc5ccc(F)cc5)CC4)cc3F)ccnc2cc1OCCCN1CCOCC1 [Foretinib] (partner 0.25 µM); test: relative viability (nuclei count vs DMSO), 5 days (fraction); higher = more cells survive; details: first compound 1 µM
Method in brief: (§1)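 Values are medians from duplicate plates. Each reflects relative viability, defined as the nuclei count of treated wells over that of vehicle wells. Lung cancer cell lines in 1536-well plates were pin-tool dosed one day after seeding with one drug alone or with a fixed anchor-drug dose plus five library-drug doses (not always all listed) in √10 steps, then fixed, stained and imaged at 4× after 5 days.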

Cell Line | relative viability
EPLC-272H | 0.0639
NCI-H2228 | 0.156

compound: CC1CC(=O)N(C2=CN=C(N=C2N1C3CCCC3)NC4=C(C=C(C=C4)C(=O)NC5CCN(CC5)C)OC)C [NPK76-II-72-1] + CC1(C)CCC(c2ccc(Cl)cc2)=C(CN2CCN(c3ccc(C(=O)NS(=O)(=O)c4ccc(N[C@H](CCN5CCOCC5)CSc5ccccc5)c(S(=O)(=O)C(F)(F)F)c4)cc3)CC2)C1 [Navitoclax] (partner 0.5 µM); test: as above; details: first compound 0.01 µM
Method in brief: as §1

Cell Line | relative viability
COR-L23 | 0.823
COR-L 105 | 0.801
LOU-NH91 | 0.635
ChaGo-K-1 | 0.937
NCI-H2170 | 0.615
NCI-H2405 | 0.834
HOP-62 | 0.973
LU99A | 0.804
BEN | 0.0828
HARA | 1.12
NCI-H322M | 1.19
NCI-H2009 | 1.11
A-427 | 1.01
NCI-H441 | 0.634
NCI-H1734 | 0.861
NCI-H460 | 1.17
NCI-H2347 | 0.761
SK-LU-1 | 0.747
NCI-H1395 | 0.994
201T | 1.18
NCI-H1915 | 0.749
HCC-827 | 1.01
LXF-289 | 0.877
NCI-H23 | 0.774
NCI-H647 | 0.986
CAL-12T | 1.15
NCI-H1651 | 0.915
EPLC-272H | 1.06
NCI-H2228 | 0.509

same assay, conditions: first compound 0.03162 µM

Cell Line | relative viability
COR-L23 | 0.969
COR-L 105 | 0.742
LOU-NH91 | 0.66
ChaGo-K-1 | 0.955
NCI-H2170 | 0.558
NCI-H2405 | 0.965
HOP-62 | 1.12
LU99A | 0.766
BEN | 0.0731
HARA | 1.14
HCC-78 | 0.846
NCI-H322M | 1.2
LCLC-97TM1 | 0.392
NCI-H2009 | 1.28
A-427 | 0.941
NCI-H441 | 0.946

Cell Line | relative viability
NCI-H1734 | 0.896
NCI-H460 | 1.45
NCI-H2347 | 0.698
SK-LU-1 | 0.996
NCI-H1395 | 1.14
201T | 1.18
NCI-H1915 | 0.795
HCC-827 | 1.06
LXF-289 | 0.964
NCI-H23 | 1.08
NCI-H647 | 1.05
CAL-12T | 1.32
NCI-H1651 | 1.04
EPLC-272H | 0.97
NCI-H2228 | 1.06

same assay, conditions: first compound 0.1 µM

Cell Line | relative viability
COR-L23 | 0.92
COR-L 105 | 0.799
LOU-NH91 | 0.666
ChaGo-K-1 | 1.09
NCI-H2170 | 0.565
NCI-H2405 | 0.806
HOP-62 | 0.947
LU99A | 0.785
BEN | 0.0563
HARA | 1.13
HCC-78 | 0.719
NCI-H322M | 1.18
LCLC-97TM1 | 0.52
NCI-H2009 | 1.1
A-427 | 0.92
NCI-H441 | 0.671
NCI-H1734 | 0.823
NCI-H460 | 1.19
NCI-H2347 | 0.728
SK-LU-1 | 1.31
NCI-H1395 | 1.24
201T | 1.23
NCI-H1915 | 0.786
HCC-827 | 0.978
LXF-289 | 0.954
NCI-H647 | 1.23
CAL-12T | 1.22
NCI-H1651 | 1.11
EPLC-272H | 1.12
NCI-H2228 | 1.14

same assay, conditions: first compound 0.3162 µM

Cell Line | relative viability
COR-L23 | 0.995
COR-L 105 | 0.717
LOU-NH91 | 0.517
ChaGo-K-1 | 0.944
NCI-H2405 | 0.844
HOP-62 | 1.06
LU99A | 0.889
BEN | 0.0637
HARA | 1.08
NCI-H322M | 1.24
LCLC-97TM1 | 0.439
NCI-H2009 | 1.14
A-427 | 1.05
NCI-H441 | 0.533
NCI-H1734 | 0.766
NCI-H460 | 1.18
NCI-H2347 | 0.789
SK-LU-1 | 0.168
NCI-H1395 | 1.46
201T | 1.2
NCI-H1915 | 0.736
HCC-827 | 0.993
LXF-289 | 0.88
NCI-H23 | 0.675
NCI-H647 | 1.11
CAL-12T | 1.02
NCI-H1651 | 0.953
EPLC-272H | 1.09
NCI-H2228 | 0.794

same assay, conditions: first compound 1 µM

Cell Line | relative viability
COR-L23 | 1.03
COR-L 105 | 0.761
LOU-NH91 | 0.833
ChaGo-K-1 | 0.64
NCI-H2170 | 0.643
NCI-H2405 | 1.17
HOP-62 | 0.954
LU99A | 0.692
BEN | 0.063
HARA | 1.15
HCC-78 | 0.732
NCI-H322M | 1.32
LCLC-97TM1 | 0.488
NCI-H2009 | 1.17
A-427 | 0.96
NCI-H441 | 0.73

Cell Line | relative viability
NCI-H1734 | 0.866
NCI-H460 | 1.23
NCI-H2347 | 0.868
SK-LU-1 | 0.838
NCI-H1395 | 1.25
201T | 1.19
NCI-H1915 | 0.826
HCC-827 | 1.12
LXF-289 | 0.941
NCI-H23 | 0.784
NCI-H647 | 1.2
CAL-12T | 1.18
NCI-H1651 | 1.1
EPLC-272H | 1.35
NCI-H2228 | 0.932

compound: CC[C@@H]1C(=O)N(C)c2cnc(Nc3ccc(C(=O)NC4CCN(C)CC4)cc3OC)nc2N1C1CCCC1 [BI-2536] + Nc1nc2[nH]cc(CCc3ccc(C(=O)N[C@@H](CCC(=O)O)C(=O)O)cc3)c2c(=O)[nH]1 [Pemetrexed] (partner 0.2 µM); test: as above; details: first compound 0.01 µM
Method in brief: as §1

Cell Line | relative viability
COR-L23 | 0.216
COR-L 105 | 0.986
